Experimental findings from PubChem BioAssay (NCI) are described below.

Among the test systems are SF-295 CNS; A498 renal; SR leukemia; 786-0 renal; U251 CNS; NCI/ADR-RES ovarian; MDA-MB-231 breast; BT-549 breast; HOP-92 NSCLC; SN12C renal.
Common to all, as to assay: growth of human tumour cells (NCI), 48 h

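1) Cells in 96-well plates. 2) Compound, 48 h, 5 concentrations. 3) Linear interpolation between surrounding doses. 4) Unreached endpoint = highest concentration. Here, GI50 denotes the concentration required for 50% inhibition of growth. Definition used: TGI = concentration required for complete inhibition of growth.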

As to `CCOC(=O)/C=C/[C@@H](CC)O[Si](C(C)C)(C(C)C)C(C)C`, the TGI in the experiment with SF-295 CNS, in the experiment on A498 renal, in the experiment with SR leukemia, with 786-0 renal, in the experiment on U251 CNS and with NCI/ADR-RES ovarian was over 100 µM in each case. Moreover, the TGI in the experiment on MDA-MB-231 breast, with BT-549 breast and in the experiment on HOP-92 NSCLC was over 100 µM throughout.

As to `CCOC(=O)CCC(NC(=O)c1ccc(Nc2nc3ccccc3nc2C(=O)OCC)cc1)C(=O)OCC` (configuration not stated), the TGI in the experiment with SF-295 CNS was 23 µM; with SN12C renal it was over 40.7 µM; in the experiment on A498 renal, 18.6 µM; in the experiment on SR leukemia, over 100 µM; with 786-0 renal, 3.46 µM; in the experiment on U251 CNS, 9.66 µM. Also, the TGI with NCI/ADR-RES ovarian was 27 µM; with MDA-MB-231 breast, over 23.8 µM; with BT-549 breast, 25.7 µM; in the experiment on HOP-92 NSCLC it was 13.9 µM.

As for `O=[N+]([O-])C(C=C(n1nnc2ccccc21)n1nnc2ccccc21)=C(n1nnc2ccccc21)n1nnc2ccccc21`, the TGI in the experiment on SF-295 CNS is over 100 µM; with SN12C renal it was over 100 µM; with A498 renal, over 100 µM; with SR leukemia it was 66.6 µM; in the experiment with 786-0 renal, over 100 µM; with U251 CNS, over 100 µM. Further, the TGI in the experiment with NCI/ADR-RES ovarian, in the experiment on MDA-MB-231 breast, in the experiment on BT-549 breast and in the experiment on HOP-92 NSCLC was over 100 µM each time.

On to `CCOC(=O)c1cc(Br)c(-c2cc(C)co2)[nH]1`, for which the TGI in the experiment on SF-295 CNS, in the experiment on SN12C renal, with A498 renal, in the experiment with SR leukemia, in the experiment on 786-0 renal and in the experiment on U251 CNS was over 100 µM throughout. Further, the TGI in the experiment with NCI/ADR-RES ovarian, in the experiment on MDA-MB-231 breast, in the experiment with BT-549 breast and in the experiment on HOP-92 NSCLC was over 100 µM each time.

`Nc1cc2c3c(cccc3c1)C(=O)N(c1ccc(OCCN3CCCC3)cc1)C2=O`: the TGI in the experiment with SF-295 CNS is 27.4 µM; with SN12C renal it was over 66.7 µM; with A498 renal, 91.5 µM; in the experiment with SR leukemia, 50.9 µM; in the experiment on 786-0 renal it was 31.5 µM; in the experiment with U251 CNS it was 64.6 µM. Also, the TGI with NCI/ADR-RES ovarian was over 57 µM; in the experiment with MDA-MB-231 breast it was 57.1 µM; with BT-549 breast it was 34.3 µM; with HOP-92 NSCLC it was 50.6 µM.

For `O=S(=O)(O)c1cc(S(=O)(=O)O)c2c(N=Nc3ccc(N=Nc4ccccc4)cc3)c(O)ccc2c1`, the TGI with SF-295 CNS, with SN12C renal, in the experiment on A498 renal, in the experiment with SR leukemia, with 786-0 renal and in the experiment with U251 CNS was over 100 µM each time. Besides, the TGI with NCI/ADR-RES ovarian, in the experiment on MDA-MB-231 breast, in the experiment with BT-549 breast and in the experiment on HOP-92 NSCLC was over 100 µM each time.

As to `CN(C)/C=C/C=C(/C=N/S(=O)(=O)C(F)(F)F)C1C=CN(S(=O)(=O)C(F)(F)F)C=C1`, the TGI in the experiment on SF-295 CNS is over 100 µM; in the experiment with SN12C renal, over 100 µM; in the experiment with A498 renal it was 88.8 µM; with SR leukemia it was over 100 µM; in the experiment on 786-0 renal, over 100 µM; in the experiment with U251 CNS, over 100 µM. The TGI in the experiment on NCI/ADR-RES ovarian came out at 96.1 µM; in the experiment on MDA-MB-231 breast it was 81.7 µM; in the experiment on BT-549 breast it was 70.1 µM; in the experiment with HOP-92 NSCLC, 90 µM.

For `CC(C)NC(=O)OCc1c(COC(=O)NC(C)C)c(-c2cc[n+](COC(=O)C3CCCCC3)cc2)n2c1CCC2`, the TGI with SF-295 CNS, in the experiment on SN12C renal, in the experiment with A498 renal, in the experiment with SR leukemia, in the experiment on 786-0 renal and in the experiment with U251 CNS was over 100 µM throughout. Moreover, the TGI in the experiment on NCI/ADR-RES ovarian, in the experiment on MDA-MB-231 breast, in the experiment with BT-549 breast and with HOP-92 NSCLC was over 100 µM throughout.

Turning to `O=C1C(c2c(O)[nH]c3ccc(S(=O)(=O)NCCO)cc23)=Nc2ccccc21`, the TGI with SF-295 CNS is over 100 µM; with SN12C renal, over 100 µM; with A498 renal, 9.07 µM; in the experiment with SR leukemia, 21.6 µM; with 786-0 renal, 28.9 µM; in the experiment on U251 CNS, 12.9 µM. Moreover, the TGI is over 100 µM with NCI/ADR-RES ovarian, 31.6 µM in the experiment with MDA-MB-231 breast, 18.7 µM in the experiment with BT-549 breast and 82.4 µM in the experiment on HOP-92 NSCLC.

With `C[C@H](CCC(=O)NCC(=O)O)[C@H]1CC[C@H]2[C@@H]3[C@H](O)C[C@@H]4C[C@H](O)CC[C@]4(C)[C@H]3CC[C@]12C`, the TGI in the experiment on SF-295 CNS, in the experiment on SN12C renal, in the experiment with A498 renal, with SR leukemia, in the experiment on 786-0 renal and in the experiment on U251 CNS was over 100 µM in each case. The TGI in the experiment with NCI/ADR-RES ovarian, in the experiment on MDA-MB-231 breast, in the experiment with BT-549 breast and with HOP-92 NSCLC was over 100 µM in each case.

In the case of `CC(=O)NC1C(OCc2ccccc2)OC(CO)C(O)C1OCC(=O)N[C@@H](C)C(=O)N[C@H](CCC(=O)NCCCNc1ccc([N+](=O)[O-])c2[nH]c3ccccc3c(=O)c12)C(N)=O` (some centres not stated), the TGI in the experiment with SF-295 CNS, in the experiment with SN12C renal, in the experiment on A498 renal, with SR leukemia, in the experiment with 786-0 renal and in the experiment on U251 CNS was over 100 µM throughout. Moreover, the TGI was over 100 µM with NCI/ADR-RES ovarian, over 100 µM in the experiment with MDA-MB-231 breast, 96.9 µM in the experiment with BT-549 breast and over 100 µM in the experiment on HOP-92 NSCLC.

As to `C=C(C)[C@@H]1CC[C@]2(C(=O)NC(C)=O)CC[C@]3(C)[C@H](CC[C@@H]4[C@@]5(C)CCCNC(C)(C)[C@@H]5CC[C@]43C)[C@@H]12`, the GI50 was 1.81 µM in the experiment on SF-295 CNS; 1.47 µM in the experiment with SN12C renal; 1.53 µM in the experiment with A498 renal; 0.839 µM in the experiment with SR leukemia; 1.68 µM with U251 CNS; 1.83 µM in the experiment with NCI/ADR-RES ovarian. The GI50 in the experiment on MDA-MB-231 breast is 1.82 µM; with BT-549 breast, 1.68 µM; in the experiment on HOP-92 NSCLC it was 1.33 µM. For the same compound, the TGI came to 3.24 µM with SF-295 CNS; 2.79 µM in the experiment with SN12C renal; 2.91 µM with A498 renal; 3.07 µM in the experiment on SR leukemia; 3.26 µM in the experiment with U251 CNS; 3.68 µM with NCI/ADR-RES ovarian. The TGI in the experiment on MDA-MB-231 breast was 3.29 µM; with BT-549 breast, 3.28 µM; in the experiment with HOP-92 NSCLC, 2.89 µM.
